Tested on: KRAS-mutant PDC tumor spheroid with HUVEC/MSC, viability
Assay: Anticancer human tumor 327498-153-R-J2-PDC patient-derived uterine carcinosarcoma cell line growth inhibition [KRAS2]
Details: for IC50: curve of first compound; for viability, T/C: stronger effect = lower value
Method in brief: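 KRAS-mutant tumor cells were grown as spheroids with HUVEC endothelial cells and human MSCs as stroma. Targeted agents were tested alone and with KRAS pathway inhibitors. Doses started at or near clinical Cmax, or 10 microM, descending half-log.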

[1] = second compound 0.1 µM, first compound 0.0316 µM
[2] = second compound 0.1 µM, first compound 0.1 µM
[3] = second compound 0.1 µM, first compound 0.316 µM
[4] = second compound 0.1 µM, first compound 1 µM
[5] = second compound 0.1 µM, first compound 3.16 µM
[6] = second compound 0.1 µM, first compound 10 µM
[7] = second compound 0.316 µM, first compound 0.0316 µM
[8] = second compound 0.316 µM, first compound 0.1 µM
[9] = second compound 0.316 µM, first compound 0.316 µM
[10] = second compound 0.316 µM, first compound 1 µM
[11] = second compound 0.316 µM, first compound 3.16 µM
[12] = second compound 0.316 µM, first compound 10 µM
[13] = second compound 1 µM, first compound 0.0316 µM
[14] = second compound 1 µM, first compound 0.1 µM
[15] = second compound 1 µM, first compound 0.316 µM
[16] = second compound 1 µM, first compound 1 µM
[17] = second compound 1 µM, first compound 3.16 µM
[18] = second compound 1 µM, first compound 10 µM
[19] = second compound 3.16 µM, first compound 0.0316 µM
[20] = second compound 3.16 µM, first compound 0.1 µM
[21] = second compound 3.16 µM, first compound 0.316 µM
[22] = second compound 3.16 µM, first compound 1 µM
[23] = second compound 3.16 µM, first compound 3.16 µM
[24] = second compound 3.16 µM, first compound 10 µM
[25] = second compound 10 µM, first compound 0.0316 µM
[26] = second compound 10 µM, first compound 0.1 µM
[27] = second compound 10 µM, first compound 0.316 µM
[28] = second compound 10 µM, first compound 1 µM
[29] = second compound 10 µM, first compound 3.16 µM
[30] = second compound 10 µM, first compound 10 µM
[31] = second compound 0.1 µM, first compound 0.00316 µM
[32] = second compound 0.1 µM, first compound 0.01 µM
[33] = second compound 0.316 µM, first compound 0.00316 µM
[34] = second compound 0.316 µM, first compound 0.01 µM
[35] = second compound 1 µM, first compound 0.00316 µM
[36] = second compound 1 µM, first compound 0.01 µM
[37] = second compound 3.16 µM, first compound 0.00316 µM
[38] = second compound 3.16 µM, first compound 0.01 µM
[39] = second compound 10 µM, first compound 0.00316 µM
[40] = second compound 10 µM, first compound 0.01 µM
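Note: spheroids exposed to agents for seven days before reading.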
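Throughout, for viability, T/C: 100% = DMSO vehicle wells so lower means fewer viable cells.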

Structure (SMILES)	IC50 (second compound 0.1 µM) [nM]	IC50 (second compound 0.316 µM) [nM]	IC50 (second compound 1 µM) [nM]	IC50 (second compound 3.16 µM) [nM]	IC50 (second compound 10 µM) [nM]	viability, T/C [1] [%]	viability, T/C [2] [%]	viability, T/C [3] [%]	viability, T/C [4] [%]	viability, T/C [7] [%]	viability, T/C [8] [%]	viability, T/C [9] [%]	viability, T/C [10] [%]	viability, T/C [13] [%]	viability, T/C [14] [%]	viability, T/C [15] [%]	viability, T/C [19] [%]	viability, T/C [20] [%]	viability, T/C [25] [%]	viability, T/C [26] [%]	other results
CC(C)NCC(C(=O)N1CCN(c2ncnc3c2C(C)CC3O)CC1)c1ccc(Cl)cc1 (stereo not given) + CC1OCC2(CCN(c3cnc(Sc4ccnc(N)c4Cl)c(N)n3)CC2)C1N	105	< 31.6	< 31.6	< 31.6	< 31.6	59.3	52.5	32.5	22.5	43.1	33	16.4	13.8	29.1	20.7	14.5	20.9	15.3	16.4	12.2	viability, T/C [5]: 16.5%; viability, T/C [6]: 11.9%; viability, T/C [11]: 10.8%; viability, T/C [12]: 7.02%; viability, T/C [16]: 8.77%; viability, T/C [17]: 7.91%; viability, T/C [18]: 5.17%; viability, T/C [21]: 9.04%; viability, T/C [22]: 6.16%; viability, T/C [23]: 5.92%; viability, T/C [24]: 4.91%; viability, T/C [27]: 9.27%; viability, T/C [28]: 6.34%; viability, T/C [29]: 4.8%; viability, T/C [30]: 3.45%
CC1(C)CCC(CN2CCN(c3ccc(C(=O)NS(=O)(=O)c4ccc(NCC5CCOCC5)c([N+](=O)[O-])c4)c(Oc4cnc5[nH]ccc5c4)c3)CC2)=C(c2ccc(Cl)cc2)C1 + CC1OCC2(CCN(c3cnc(Sc4ccnc(N)c4Cl)c(N)n3)CC2)C1N	1920	1120	< 31.6	< 31.6	< 31.6	64.6	67.3	73.2	66	53.7	48.5	51.1	56.4	42	42.7	42	32.6	33.3	23.6	28.6	viability, T/C [5]: 37.6%; viability, T/C [6]: 3.49%; viability, T/C [11]: 28.6%; viability, T/C [12]: 1.66%; viability, T/C [16]: 41%; viability, T/C [17]: 25%; viability, T/C [18]: 0.76%; viability, T/C [21]: 30.8%; viability, T/C [22]: 25.9%; viability, T/C [23]: 15.6%; viability, T/C [24]: 0.57%; viability, T/C [27]: 23.7%; viability, T/C [28]: 25%; viability, T/C [29]: 15.4%; viability, T/C [30]: 0.27%
CCN1CCN(Cc2ccc(Nc3ncc(F)c(-c4cc(F)c5nc(C)n(C(C)C)c5c4)n3)nc2)CC1 + CC1OCC2(CCN(c3cnc(Sc4ccnc(N)c4Cl)c(N)n3)CC2)C1N	8.23	< 3.16	< 3.16	< 3.16	< 3.16	36.7	37.9	44.6	45.5	26.9	29.2	26.6	33.5	24.5	21.3	22	16.2	16.7	17.8	16.9	viability, T/C [31]: 61.5%; viability, T/C [32]: 49%; viability, T/C [33]: 42.5%; viability, T/C [34]: 31.6%; viability, T/C [35]: 34.2%; viability, T/C [36]: 23.7%; viability, T/C [16]: 26.5%; viability, T/C [37]: 20%; viability, T/C [38]: 16.6%; viability, T/C [21]: 18.5%; viability, T/C [22]: 22.1%; viability, T/C [39]: 19%; viability, T/C [40]: 16.2%; viability, T/C [27]: 20.8%; viability, T/C [28]: 22%
Cn1ncnc1[C@H]1c2n[nH]c(=O)c3cc(F)cc(c23)N[C@@H]1c1ccc(F)cc1 + CC1OCC2(CCN(c3cnc(Sc4ccnc(N)c4Cl)c(N)n3)CC2)C1N	10.9	1.14	< 0.316	< 0.316	< 0.316	31.4	18			23.3	15.6			15.6	13.2		11.2	9.64	12.4	8.58	viability, T/C (second compound 0.1 µM, first compound 0.000316 µM): 71.8%; viability, T/C (second compound 0.1 µM, first compound 0.001 µM): 68.1%; viability, T/C [31]: 59.4%; viability, T/C [32]: 55.2%; viability, T/C (second compound 0.316 µM, first compound 0.000316 µM): 58%; viability, T/C (second compound 0.316 µM, first compound 0.001 µM): 51.1%; viability, T/C [33]: 40.7%; viability, T/C [34]: 38.2%; viability, T/C (second compound 1 µM, first compound 0.000316 µM): 45.5%; viability, T/C (second compound 1 µM, first compound 0.001 µM): 37.2%; viability, T/C [35]: 26.6%; viability, T/C [36]: 21.4%; viability, T/C (second compound 3.16 µM, first compound 0.000316 µM): 30%; viability, T/C (second compound 3.16 µM, first compound 0.001 µM): 32.2%; viability, T/C [37]: 25%; viability, T/C [38]: 19.2%; viability, T/C (second compound 10 µM, first compound 0.000316 µM): 29.5%; viability, T/C (second compound 10 µM, first compound 0.001 µM): 27.1%; viability, T/C [39]: 21.9%; viability, T/C [40]: 15.5%
